The test addresses T1, GLUT5 (Homo sapiens, UniProt P22732).
T1 construct: gene SLC2A5
T1 sequence (P22732 1-501): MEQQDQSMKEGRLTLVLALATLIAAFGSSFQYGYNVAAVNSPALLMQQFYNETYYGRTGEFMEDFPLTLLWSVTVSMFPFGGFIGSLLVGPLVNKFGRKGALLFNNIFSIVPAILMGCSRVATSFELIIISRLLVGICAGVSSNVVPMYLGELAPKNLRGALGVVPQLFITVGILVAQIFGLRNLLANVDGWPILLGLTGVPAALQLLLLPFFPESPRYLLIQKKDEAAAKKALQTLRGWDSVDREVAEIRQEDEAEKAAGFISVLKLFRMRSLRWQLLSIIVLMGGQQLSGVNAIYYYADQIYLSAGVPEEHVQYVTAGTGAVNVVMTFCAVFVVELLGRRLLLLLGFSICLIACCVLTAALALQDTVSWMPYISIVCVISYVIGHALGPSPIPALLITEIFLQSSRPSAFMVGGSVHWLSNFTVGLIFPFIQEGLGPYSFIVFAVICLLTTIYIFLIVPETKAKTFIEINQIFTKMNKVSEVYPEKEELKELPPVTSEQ
The test is described as follows: competition with ManCou-F uptake in MCF7 cells. In kind it is cell-based.

A word on the IC50: it is the concentration at which inhibition is half-maximal.

Compound `OC[C@H]1OC(O)(CO)[C@@H](O)[C@@H]1O` (stereo partly shown) [fructose] returned an IC50 of around 28 mM.

For the origin of these results see PMC9820411, “Late-Stage Functionalization through Click Chemistry Provides GLUT5-Targeting Glycoconjugate as a Potential PET Imaging Probe” (International Journal of Molecular Sciences, 2022).
